System: Lactobacillus gasseri - clinical strain
Experiment: Determination of the MIC value of totarol, broth dilution in 96-well plates with OD and quantitative culture
Assay type: cell-based
Conditions: for OD, average of 3 measurements / OD: 620 nm
Protocol: Test of antibacterial activity of totarol using DMI (dimethylisosorbide) as a solvent.
A suspension of 0.5 McF in physiological saline (suspension density 10^8 cfu/ml) was prepared from a 24-hour culture of a standard strain. 1 ml of the suspension was collected to 9 ml of a TSB broth ([…]). Suspensions with a dilution of 10^−6 were prepared in the described way. A suspension with a cell density of 10^5 cfu/ml was selected for further investigations. For each strain, 2 96-well plates were prepared: the first one was intended for the OD measurement, the second one—for quantitative culture on solid media. • A/ to wells B1-D1, B2-D2 and B-D 4-11, 100 µl of the broth were added; • B/ to wells B3-D3, 200 µl of the broth were added; • C/ to wells B1-D1, 1 µl of stock I was added; • D/ to wells B2-D2, 1 µl of stock II was added; • E/ to wells B3-D3, 2 µl of stock III were added. Using a multichannel pipette, 100 µl of the sample were collected from each of the B3-D3 wells and placed in wells B4-D4 (mixing by sucking the content in and letting it out for 5 times). The pipette tips were replaced and 100 µl of the content were collected from of the B4-D4 wells, and placed in wells B5-D5, mixing as previously. These operations were repeated through the wells B11-D11. The content in the B11-D11 wells was mixed, and 100 µl of the fluid were collected and discarded. This way, a series of dilutions of totarol samples in DMI in the range of 0.32% to 0.0004% was obtained. Then, 100 µl of a corresponding bacterial culture were added to the wells B, C, D 1-11. In consequence, a change in the final concentration range occurred, to 0.16%-0.0002%. Control Preparation: • Negative control: 100 µl of the broth+1 pl DMI were added to the Al well. • Positive control (I): 100 µl of the broth with the bacterial culture were added to the wells E1-G1. • Diluent positive control (II): 100 µl of the broth with the bacterial culture+1 pl DMI were added to the wells E2-G2. The OD value in the individual wells was read at the wavelength of 620 nm (read time 0). From the second 96-well plate, a culture was inoculated by a quantitative method from every dilution onto a well with a proper solid medium, and incubated for 24 h at 37° C. under aerobic or anaerobic conditions, depending on the strain. The plates were incubated under aerobic conditions or in an atmosphere of an elevated CO2 concentration (for the strains requiring it) in an incubator at 37° C. The OD was read after 8 h, 16 h, and 24 h, respectively. Before every OD measurement, the contents of the wells were mixed delicately. In parallel to the OD readout, cultures we inoculated from the second 96-well plate, from every dilution, into plates with a proper solid medium, and incubated for 24 h at 37° C., under aerobic or anaerobic conditions. For the analysis of the experimental results, an average value of the OD measurement obtained from three repetitions in the individual times (0, 8, 16, and 24 h) for the individual microbes (Gardnerella vaginalis, Streptococcus agalactiae, Enterococcus faecalis, Lactobacillus gasseri/plantarum) was taken. Additionally, the number of bacteria grown on solid media was taken into account. The results of the tests confirm the specific, concentration-dependent selectiveness, and the high antibacterial effectiveness of totarol against the pathogenic microorganisms: Gardnerella vaginalis, Streptococcus agalactiae, Enterococcus faecalis at low MIC values safe for bacteria of the Lactobacillus genus.

With `CC(C)c1c(O)ccc2c1CC[C@H]1C(C)(C)CCC[C@]21C` [Totarol, totarol] the MIC value (L. gasseri) was 0.04%, the Inoculation cfu/ml (totarol 0.0002%, 0 h) was 3.1 × 10^5 cfu/ml and the “OD, average of 3 measurements” value (totarol 0.0002%, 0 h) was 0.299. The Inoculation cfu/ml (totarol 0.0002%, 8 h) was 2.1 × 10^5 cfu/ml, the “OD, average of 3 measurements” value (totarol 0.0002%, 8 h) was 0.302 and the Inoculation cfu/ml (totarol 0.0002%, 16 h) was 5.9 × 10^6 cfu/ml. The “OD, average of 3 measurements” value (totarol 0.0002%, 16 h) was 0.897, the Inoculation cfu/ml (totarol 0.0002%, 24 h) was 2.9 × 10^7 cfu/ml and the OD (totarol 0.0002%, 24 h) was 1.492. For the same compound, the Inoculation cfu/ml (totarol 0.0004%, 0 h) was 5.1 × 10^5 cfu/ml, the “OD, average of 3 measurements” value (totarol 0.0004%, 0 h) was 0.296 and the Inoculation cfu/ml (totarol 0.0004%, 8 h) was 2.1 × 10^5 cfu/ml. The “OD, average of 3 measurements” value (totarol 0.0004%, 8 h) was 0.306, the Inoculation cfu/ml (totarol 0.0004%, 16 h) was 3.9 × 10^6 cfu/ml and the “OD, average of 3 measurements” value (totarol 0.0004%, 16 h) was 0.915. The Inoculation cfu/ml (totarol 0.0004%, 24 h) was 3.2 × 10^7 cfu/ml, the OD (totarol 0.0004%, 24 h) was 1.484 and the Inoculation cfu/ml (totarol 0.0007%, 0 h) was 1.7 × 10^5 cfu/ml. For the same compound, the “OD, average of 3 measurements” value (totarol 0.0007%, 0 h) was 0.289, the Inoculation cfu/ml (totarol 0.0007%, 8 h) was 1.9 × 10^5 cfu/ml and the “OD, average of 3 measurements” value (totarol 0.0007%, 8 h) was 0.299. The Inoculation cfu/ml (totarol 0.0007%, 16 h) was 3.6 × 10^6 cfu/ml, the “OD, average of 3 measurements” value (totarol 0.0007%, 16 h) was 0.879 and the Inoculation cfu/ml (totarol 0.0007%, 24 h) was 3 × 10^7 cfu/ml. For the same compound, the OD (totarol 0.0007%, 24 h) was 1.458, the Inoculation cfu/ml (totarol 0.0013%, 0 h) was 3.8 × 10^5 cfu/ml and the “OD, average of 3 measurements” value (totarol 0.0013%, 0 h) was 0.298. For the same compound, the Inoculation cfu/ml (totarol 0.0013%, 8 h) was 1.8 × 10^5 cfu/ml, the “OD, average of 3 measurements” value (totarol 0.0013%, 8 h) was 0.301 and the Inoculation cfu/ml (totarol 0.0013%, 16 h) was 4.1 × 10^6 cfu/ml. For the same compound, the “OD, average of 3 measurements” value (totarol 0.0013%, 16 h) was 0.879, the Inoculation cfu/ml (totarol 0.0013%, 24 h) was 2.1 × 10^7 cfu/ml and the OD (totarol 0.0013%, 24 h) was 1.457. The Inoculation cfu/ml (totarol 0.0025%, 0 h) was 4.5 × 10^5 cfu/ml, the “OD, average of 3 measurements” value (totarol 0.0025%, 0 h) was 0.285 and the Inoculation cfu/ml (totarol 0.0025%, 8 h) was 1.5 × 10^5 cfu/ml. The “OD, average of 3 measurements” value (totarol 0.0025%, 8 h) was 0.302, the Inoculation cfu/ml (totarol 0.0025%, 16 h) was 2.3 × 10^6 cfu/ml and the “OD, average of 3 measurements” value (totarol 0.0025%, 16 h) was 0.880. For the same compound, the Inoculation cfu/ml (totarol 0.0025%, 24 h) was 2.3 × 10^7 cfu/ml, the OD (totarol 0.0025%, 24 h) was 1.459 and the Inoculation cfu/ml (totarol 0.005%, 0 h) was 1.2 × 10^5 cfu/ml. The “OD, average of 3 measurements” value (totarol 0.005%, 0 h) was 0.292, the Inoculation cfu/ml (totarol 0.005%, 8 h) was 2 × 10^5 cfu/ml and the “OD, average of 3 measurements” value (totarol 0.005%, 8 h) was 0.300. The Inoculation cfu/ml (totarol 0.005%, 16 h) was 9.1 × 10^6 cfu/ml, the “OD, average of 3 measurements” value (totarol 0.005%, 16 h) was 0.843 and the Inoculation cfu/ml (totarol 0.005%, 24 h) was 2.1 × 10^7 cfu/ml. For the same compound, the OD (totarol 0.005%, 24 h) was 1.387, the Inoculation cfu/ml (totarol 0.01%, 0 h) was 3.9 × 10^5 cfu/ml and the “OD, average of 3 measurements” value (totarol 0.01%, 0 h) was 0.301. For the same compound, the Inoculation cfu/ml (totarol 0.01%, 8 h) was 7 × 10^4 cfu/ml, the “OD, average of 3 measurements” value (totarol 0.01%, 8 h) was 0.297 and the Inoculation cfu/ml (totarol 0.01%, 16 h) was 5.3 × 10^6 cfu/ml. For the same compound, the “OD, average of 3 measurements” value (totarol 0.01%, 16 h) was 0.799, the Inoculation cfu/ml (totarol 0.01%, 24 h) was 1.3 × 10^7 cfu/ml and the OD (totarol 0.01%, 24 h) was 1.301. The Inoculation cfu/ml (totarol 0.02%, 0 h) was 1.4 × 10^5 cfu/ml, the “OD, average of 3 measurements” value (totarol 0.02%, 0 h) was 0.305 and the Inoculation cfu/ml (totarol 0.02%, 8 h) was 1.4 × 10^5 cfu/ml. The “OD, average of 3 measurements” value (totarol 0.02%, 8 h) was 0.299, the Inoculation cfu/ml (totarol 0.02%, 16 h) was 2.1 × 10^5 cfu/ml and the “OD, average of 3 measurements” value (totarol 0.02%, 16 h) was 0.753. For the same compound, the Inoculation cfu/ml (totarol 0.02%, 24 h) was 1 × 10^5 cfu/ml, the OD (totarol 0.02%, 24 h) was 1.208 and the Inoculation cfu/ml (totarol 0.04%, 0 h) was 4.6 × 10^5 cfu/ml. For the same compound, the “OD, average of 3 measurements” value (totarol 0.04%, 0 h) was 0.352, the Inoculation cfu/ml (totarol 0.04%, 8 h) was 6 × 10^4 cfu/ml and the “OD, average of 3 measurements” value (totarol 0.04%, 8 h) was 0.335. The Inoculation cfu/ml (totarol 0.04%, 16 h) was 4.5 × 10^3 cfu/ml, the “OD, average of 3 measurements” value (totarol 0.04%, 16 h) was 0.342 and the Inoculation cfu/ml (totarol 0.04%, 24 h) was 5 × 10^3 cfu/ml. The OD (totarol 0.04%, 24 h) was 0.349, the Inoculation cfu/ml (totarol 0.08%, 0 h) was 2.9 × 10^5 cfu/ml and the “OD, average of 3 measurements” value (totarol 0.08%, 0 h) was 0.526. The Inoculation cfu/ml (totarol 0.08%, 8 h) was 1 × 10^4 cfu/ml, the “OD, average of 3 measurements” value (totarol 0.08%, 8 h) was 0.409 and the Inoculation cfu/ml (totarol 0.08%, 16 h) was 1.9 × 10^2 cfu/ml. The “OD, average of 3 measurements” value (totarol 0.08%, 16 h) was 0.463, the Inoculation cfu/ml (totarol 0.08%, 24 h) was 1.2 × 10^2 cfu/ml and the OD (totarol 0.08%, 24 h) was 0.472. For the same compound, the Inoculation cfu/ml (totarol 0.16%, 0 h) was 6.5 × 10^5 cfu/ml, the “OD, average of 3 measurements” value (totarol 0.16%, 0 h) was 0.427 and the Inoculation cfu/ml (totarol 0.16%, 8 h) was 2.5 × 10^4 cfu/ml. For the same compound, the “OD, average of 3 measurements” value (totarol 0.16%, 8 h) was 0.411, the Inoculation cfu/ml (totarol 0.16%, 16 h) was 3.1 × 10^1 cfu/ml and the “OD, average of 3 measurements” value (totarol 0.16%, 16 h) was 0.409. For the same compound, the Inoculation cfu/ml (totarol 0.16%, 24 h) was 1 × 10^1 cfu/ml and the OD (totarol 0.16%, 24 h) was 0.406.
